Assay results taken from patent US11713327B2, “Heteroaryl heterocyclyl compounds for the treatment of autoimmune disease” (Hoffmann-La Roche Inc., priority 2018, dated 2023).

What was measured:
[1] = molecular target: hERG K+ channels (Homo sapiens (Human), UniProt Q12809); test: hERG channel inhibition assay (patch-clamp, CHOhERG cells); assay type: cell-based; conditions: for safety window (hERG IC20/TLR7/8/9 IC50): compared to the compounds of this invention; for hERG IC20/TLR7 IC50 / hERG IC20/TLR9 IC50: safety ratio
Sequence of hERG K+ channels (Q12809 whole entry): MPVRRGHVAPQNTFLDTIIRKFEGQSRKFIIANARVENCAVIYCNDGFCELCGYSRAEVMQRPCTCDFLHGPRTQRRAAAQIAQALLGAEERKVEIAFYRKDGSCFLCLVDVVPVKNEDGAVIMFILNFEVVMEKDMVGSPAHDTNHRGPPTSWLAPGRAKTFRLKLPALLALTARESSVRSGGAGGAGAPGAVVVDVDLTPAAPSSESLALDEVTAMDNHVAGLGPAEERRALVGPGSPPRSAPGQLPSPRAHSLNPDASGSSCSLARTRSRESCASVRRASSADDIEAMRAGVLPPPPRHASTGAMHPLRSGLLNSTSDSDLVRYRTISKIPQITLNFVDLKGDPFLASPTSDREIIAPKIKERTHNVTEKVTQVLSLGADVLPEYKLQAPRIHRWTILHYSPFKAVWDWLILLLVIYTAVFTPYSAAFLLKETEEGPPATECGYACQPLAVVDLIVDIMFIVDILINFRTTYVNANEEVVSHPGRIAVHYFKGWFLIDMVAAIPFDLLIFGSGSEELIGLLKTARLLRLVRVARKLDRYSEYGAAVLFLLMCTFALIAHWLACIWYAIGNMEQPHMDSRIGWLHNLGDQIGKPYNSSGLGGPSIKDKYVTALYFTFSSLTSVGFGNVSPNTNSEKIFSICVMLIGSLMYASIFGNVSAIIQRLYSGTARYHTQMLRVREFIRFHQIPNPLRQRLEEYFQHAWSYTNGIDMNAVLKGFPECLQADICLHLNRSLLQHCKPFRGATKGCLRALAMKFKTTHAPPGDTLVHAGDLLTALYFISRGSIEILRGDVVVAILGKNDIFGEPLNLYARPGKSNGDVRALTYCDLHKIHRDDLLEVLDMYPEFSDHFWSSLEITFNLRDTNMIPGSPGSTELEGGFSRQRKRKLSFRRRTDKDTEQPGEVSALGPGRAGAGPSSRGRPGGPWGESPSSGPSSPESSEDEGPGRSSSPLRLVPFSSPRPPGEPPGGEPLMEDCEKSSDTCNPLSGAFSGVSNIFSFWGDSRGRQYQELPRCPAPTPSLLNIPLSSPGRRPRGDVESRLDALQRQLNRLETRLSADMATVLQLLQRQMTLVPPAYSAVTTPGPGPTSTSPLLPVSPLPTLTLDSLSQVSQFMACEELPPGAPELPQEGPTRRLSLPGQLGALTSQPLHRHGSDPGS
Experimental: hERG Channel Inhibition Assay:
The hERG K^+ channels were cloned in humans and stably expressed in a CHO (Chinese hamster ovary) cell line. CHOhERG cells were used for patch-clamp (voltage-clamp, whole-cell) experiments. Cells were stimulated by a voltage pattern to activate hERG channels and conduct IKhERG currents (rapid delayed outward rectifier potassium current of the hERG channel). After the cells were stabilized for a few minutes, the amplitude and kinetics of IKhERG were recorded at a stimulation frequency of 0.1 Hz (6 bpm). Thereafter, the test compound was added to the preparation at increasing concentrations. For each concentration, an attempt was made to reach a steady-state effect, usually, this was achieved within 3-10 min at which time the next highest concentration was applied. The amplitude and kinetics of IKhERG are recorded in each concentration of the drug which were compared to the control values (taken as 100%). (references: Redfern W S, Carlsson L, Davis A S, Lynch W G, MacKenzie I, Palethorpe S, Siegl P K, Strang I, Sullivan A T, Wallis R, Camm A J, Hammond T G. 2003; Relationships between preclinical cardiac electrophysiology, clinical QT interval prolongation and torsade de pointes for a broad range of drugs: evidence for a provisional safety margin in drug development. Cardiovasc. Res. 58:32-45, Sanguinetti M C, Tristani-Firouzi M. 2006; hERG potassium channels and cardiac arrhythmia. Nature 440:463-469, Webster R, Leishman D, Walker D. 2002; Towards a drug concentration effect relationship for QT prolongation and torsades de pointes. Curr. Opin. Drug Discov. Devel. 5:116-26).

[2] = Human microsome stability assay; assay type: in vitro ADME; conditions: 1 μM test compound, 0.5 mg/mL liver microsomal protein
Experimental: Human Microsome Stability Assay
The human microsomal stability assay is used for early assessment of metabolic stability of a test compound in human liver microsomes.
Human liver microsomes (Cat. NO.: 452117, Corning, USA; Cat. NO.: H2610, Xenotech, USA) were preincubated with test compound for 10 minutes at 37° C. in 100 mM potassium phosphate buffer, pH 7.4. The reactions were initiated by adding NADPH regenerating system. The final incubation mixtures contained 1 μM test compound, 0.5 mg/mL liver microsomal protein, 1 mM MgCl2, 1 mM NADP, 1 unit/mL isocitric dehydrogenase and 6 mM isocitric acid in 100 mM potassium phosphate buffer, pH 7.4. After incubation times of 0, 3, 6, 9, 15 and 30 minutes at 37° C., 300 μL of cold acetonitrile (including internal standard) was added to 100 μL incubation mixture to terminate the reaction. Following precipitation and centrifugation, the amount of compound remaining in the samples were determined by LC-MS/MS. Controls of no NADPH regenerating system at zero and 30 minutes were also prepared and analyzed.

| Structure (SMILES) | Clearance of Human microsome [2] [mL/min/kg] | safety window (hERG IC20/TLR7/8/9 IC50) [1] | hERG IC20/TLR7 IC50 [1] | hERG IC20/TLR9 IC50 [1] |
| --- | --- | --- | --- | --- |
| C[C@@H]1CN(c2ccc(C#N)c3ncccc23)C[C@H](CN2CCN(c3ccccn3)CC2)O1 [ER-888285] |  | much narrower safety window | 8.4 | 0.5 |
| C[C@@H]1CN(c2ccc(C#N)c3ncccc23)C[C@H](CN2CCN(c3ccncc3)CC2)O1 [ER-888286] |  | much narrower safety window | 0.3 | 0.2 |
| C[C@@H]1CN(c2ccc(C#N)c3ncccc23)C[C@H](CN2CCN(c3ccc(Cl)cc3)CC2)O1 [Example R2, 5-[(2S,6R)-2-[[4-(4-chlorophenyl)piperazin-1-yl]methyl]-6-methyl-morpholin-4-yl]quinoline-8-carbonitrile] |  | much narrower safety window | 1.3 | 0.04 |
| C[C@@H]1CN(c2ccc(C#N)c3ncccc23)C[C@H](CN2CC3(C2)CN(c2cnc4c(n2)CCNC4)CCO3)O1 [Example 50, 5-[(2R,6S)-2-methyl-6-[[8-(5,6,7,8-tetrahydropyrido[3,4-b]pyrazin-2-yl)-5-oxa-2,8-diazaspiro[3.5]nonan-2-yl]methyl]morpholin-4-yl]quinoline-8-carbonitrile] |  |  |  | >144.9 |
| C[C@@H]1CN(c2ccc(C#N)c3ncccc23)C[C@H](CN2CCN(c3ccccc3)CC2)O1 [ER-887258] |  | much narrower safety window | 8.1 | 0.3 |
| COc1ccc(N2CCN(C[C@H]3CN(c4ccc(C#N)c5ncccc45)C[C@@H](C)O3)CC2)cc1 [Example R1, 5-[(2S,6R)-2-[[4-(4-methoxyphenyl)piperazin-1-yl]methyl]-6-methyl-morpholin-4-yl]quinoline-8-carbonitrile] |  | much narrower safety window | 9.3 | 0.1 |

The next lines start with results.

| Clearance of Human microsome [2] [mL/min/kg] | Structure (SMILES) | safety window (hERG IC20/TLR7/8/9 IC50) [1] | hERG IC20/TLR7 IC50 [1] | hERG IC20/TLR9 IC50 [1] |
| --- | --- | --- | --- | --- |
| 6.15 | [2H]c1nc2c(C#N)ccc(N3C[C@H](CN4CCN(c5ccc6c(n5)CN[C@@H]6C)CC4)O[C@H](C)C3)c2nc1[2H] [Example 97, 2,3-dideuterio-8-[(2R,6S)-2-methyl-6-[[4-[(5R)-5-methyl-6,7-dihydro-5H-pyrrolo[3,4-b]pyridin-2-yl]piperazin-1-yl]methyl]morpholin-4-yl]quinoxaline-5-carbonitrile] |  |  |  |
| 6.15 | C[C@@H]1CN(c2ccc(C#N)c3ncccc23)C[C@H](CN2CCN(c3ccc4c(n3)CN[C@H]4C)CC2)O1 [Example 63, 5-[(2R,6S)-2-methyl-6-[[4-[(5S)-5-methyl-6,7-dihydro-5H-pyrrolo[3,4-b]pyridin-2-yl]piperazin-1-yl]methyl]morpholin-4-yl]quinoline-8-carbonitrile] |  |  |  |
| 6.32 | [2H]c1ccc2c(N3C[C@H](CN4CCN(c5ccc6c(n5)CN[C@H]6C)CC4)O[C@H](C)C3)ccc(C#N)c2n1 [Example 99, 2-deuterio-5-[(2R,6S)-2-methyl-6-[[4-[(5S)-5-methyl-6,7-dihydro-5H-pyrrolo[3,4-b]pyridin-2-yl]piperazin-1-yl]methyl]morpholin-4-yl]quinoline-8-carbonitrile] |  |  |  |
| 8.02 | [2H]c1ccc2c(N3C[C@H](CN4CCN(c5ccc6c(n5)CN[C@@H]6C)CC4)O[C@H](C)C3)ccc(C#N)c2n1 [Example 98, 2-deuterio-5-[(2R,6S)-2-methyl-6-[[4-[(5R)-5-methyl-6,7-dihydro-5H-pyrrolo[3,4-b]pyridin-2-yl]piperazin-1-yl]methyl]morpholin-4-yl]quinoline-8-carbonitrile] |  |  |  |
| 7.13 | [2H]c1nc2c(C#N)ccc(N3C[C@H](CN4CCN(c5cc6c(cn5)[C@@H](C)NCC6)CC4)O[C@H](C)C3)c2nc1[2H] [Example 95, 2,3-dideuterio-8-[(2R,6S)-2-methyl-6-[[4-[(8R)-8-methyl-5,6,7,8-tetrahydro-2,7-naphthyridin-3-yl]piperazin-1-yl]methyl]morpholin-4-yl]quinoxaline-5-carbonitrile] |  |  |  |
| 6.23 | [2H]c1nc2c(C#N)ccc(N3C[C@H](CN4CCN(c5ccc6c(n5)CN[C@H]6C)CC4)O[C@H](C)C3)c2nc1[2H] [Example 96, 2,3-dideuterio-8-[(2R,6S)-2-methyl-6-[[4-[(5S)-5-methyl-6,7-dihydro-5H-pyrrolo[3,4-b]pyridin-2-yl]piperazin-1-yl]methyl]morpholin-4-yl]quinoxaline-5-carbonitrile] |  |  |  |
